ChEMBL document CHEMBL1201862, “PubChem BioAssay data set” (2004)
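Briefly, cells in 96-well plates were exposed to five compound concentrations for 48 h, and endpoints were estimated by linear interpolation. GI50: concentration for 50% inhibition of growth.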 Activity calls are given as the source filed them. Cut-off read from the data, not from the text of the source: active = GI50 up to about 1.1 µM and inactive = higher.

How the values were obtained:
Assay in all cases: growth of human tumour cells (NCI), 48 h
RPMI-8226 = test system: RPMI-8226
M14 = test system: M14
PC-3 = test system: PC-3
EKVX = test system: EKVX
K562 = test system: K562
HL-60 = test system: HL-60
TK-10 = test system: TK-10
NCI-H522 = test system: NCI-H522
MOLT-4 = test system: MOLT-4
SF-539 = test system: SF-539
CAKI-1 = test system: CAKI-1
BT-549 = test system: BT-549
SW-620 = test system: SW-620
SF-268 = test system: SF-268
SK-MEL-2 = test system: SK-MEL-2
COLO 205 = test system: COLO 205
Malme-3M = test system: Malme-3M
SNB-75 = test system: SNB-75
A498 = test system: A498
A549 = test system: A549

Measured: GI50

N#C/C(=C\c1cc(O)c(O)c(O)c1)C(N)=O
inactive: RPMI-8226 > 100 µM | M14 > 90.2 µM | PC-3 > 22.2 µM | EKVX > 91 µM | K562 62.2 µM | HL-60 37.8 µM | TK-10 > 100 µM | NCI-H522 > 66.4 µM | MOLT-4 52.5 µM | SF-539 > 100 µM | CAKI-1 > 100 µM | BT-549 97.5 µM | SW-620 > 84.5 µM | SF-268 67.3 µM | SK-MEL-2 > 100 µM | COLO 205 > 100 µM | Malme-3M > 100 µM | SNB-75 63.7 µM | A498 > 100 µM | A549 > 100 µM

COc1ccc2nccc(/C=C/c3ccc(N(C)C)cc3)c2c1
inactive: RPMI-8226 > 10 µM | M14 > 10 µM | PC-3 > 10 µM | EKVX > 10 µM | K562 6.41 µM | HL-60 > 10 µM | TK-10 > 10 µM | NCI-H522 > 10 µM | MOLT-4 8.18 µM | SF-539 > 10 µM | CAKI-1 > 10 µM | BT-549 > 10 µM | SW-620 > 10 µM | SF-268 > 10 µM | SK-MEL-2 > 10 µM | COLO 205 > 10 µM | Malme-3M > 10 µM | SNB-75 6.73 µM | A498 > 10 µM | A549 > 10 µM

CSc1nc(SC)c2c(CN=[N+]=[N-])c(Br)n(Cc3ccccc3)c2n1
inactive: RPMI-8226 > 100 µM | M14 > 100 µM | PC-3 > 100 µM | EKVX > 100 µM | HL-60 62.1 µM | TK-10 > 100 µM | NCI-H522 > 100 µM | MOLT-4 > 100 µM | SF-539 32.8 µM | CAKI-1 > 100 µM | BT-549 > 100 µM | SW-620 > 100 µM | SF-268 > 100 µM | SK-MEL-2 > 100 µM | COLO 205 > 100 µM | Malme-3M > 100 µM | SNB-75 51.3 µM | A498 > 100 µM | A549 > 100 µM

Nc1ncnc2c1ccn2CC#CCO
inactive: RPMI-8226 > 100 µM | M14 > 100 µM | PC-3 > 100 µM | EKVX > 100 µM | K562 > 100 µM | HL-60 93.8 µM | TK-10 > 100 µM | NCI-H522 > 100 µM | MOLT-4 > 100 µM | SF-539 > 100 µM | CAKI-1 > 100 µM | BT-549 > 100 µM | SW-620 > 100 µM | SF-268 > 100 µM | SK-MEL-2 > 100 µM | COLO 205 > 100 µM | Malme-3M > 100 µM | SNB-75 > 100 µM | A498 > 100 µM | A549 > 100 µM

NCCCCC(N)C(=O)NCCNc1ccc(NCCNC(=O)C(N)CCCCN)c2c1C(=O)c1ccccc1C2=O (centres undefined)
inactive: RPMI-8226 31.8 µM | M14 > 100 µM | PC-3 81.1 µM | EKVX > 100 µM | K562 > 33.4 µM | HL-60 > 95.5 µM | TK-10 > 94.4 µM | NCI-H522 3.56 µM | MOLT-4 4.39 µM | SF-539 7.62 µM | CAKI-1 > 84.7 µM | BT-549 6.78 µM | SW-620 71.8 µM | SF-268 > 100 µM | SK-MEL-2 > 100 µM | COLO 205 > 59.8 µM | Malme-3M > 100 µM | SNB-75 43.2 µM | A498 46.5 µM | A549 63 µM

CCCC(=O)OC1C(CO)OC(n2cc(F)c(=O)[nH]c2=O)C1F (centres undefined)
inactive: RPMI-8226 1.57 µM | PC-3 92.3 µM | EKVX 67 µM | HL-60 80.5 µM | TK-10 > 100 µM | NCI-H522 > 100 µM | MOLT-4 > 100 µM | SF-539 1.67 µM | CAKI-1 50.2 µM | BT-549 11.5 µM | SW-620 > 100 µM | SK-MEL-2 > 100 µM | COLO 205 > 100 µM | Malme-3M 42.6 µM | SNB-75 5.86 µM | A498 5.68 µM | A549 > 100 µM

CN(/N=C\c1ccc2ccccc2c1)C1=NCCCCN1
inactive: RPMI-8226 19.8 µM | PC-3 16.7 µM | EKVX 19.7 µM | K562 17.4 µM | HL-60 15.1 µM | TK-10 20.2 µM | NCI-H522 16.7 µM | MOLT-4 17.6 µM | SF-539 21.7 µM | CAKI-1 11.8 µM | BT-549 14.6 µM | SW-620 17.9 µM | SF-268 34.4 µM | SK-MEL-2 23.8 µM | COLO 205 16.1 µM | Malme-3M 14.9 µM | SNB-75 10.4 µM | A498 21 µM | A549 18.8 µM

CC1=C(C)C1[N+](=O)[O-]
inactive: RPMI-8226 > 100 µM | M14 > 100 µM | PC-3 > 100 µM | EKVX > 100 µM | K562 > 100 µM | HL-60 43.9 µM | TK-10 > 100 µM | NCI-H522 > 100 µM | MOLT-4 > 100 µM | SF-539 > 100 µM | CAKI-1 > 100 µM | BT-549 > 100 µM | SW-620 > 100 µM | SF-268 > 100 µM | COLO 205 > 100 µM | Malme-3M 82.6 µM | SNB-75 26.1 µM | A498 97.7 µM | A549 > 100 µM

CN(CCCN(C)Cc1ccc(Cl)c(Cl)c1)CCN1CCCC1
inactive: RPMI-8226 4.28 µM | M14 5.73 µM | PC-3 28.2 µM | EKVX 36.3 µM | K562 4.67 µM | HL-60 23.4 µM | TK-10 24.2 µM | NCI-H522 16 µM | MOLT-4 6.27 µM | SF-539 16.7 µM | CAKI-1 29.2 µM | BT-549 30.8 µM | SW-620 19.7 µM | SF-268 27.5 µM | SK-MEL-2 11 µM | COLO 205 9.35 µM | Malme-3M 15.8 µM | SNB-75 19.1 µM | A498 13.9 µM | A549 19.1 µM

Cc1ccc(CC2(OCCN(C)C)CCC(C(C)(C)C)CC2)cc1 (centres undefined)
inactive: RPMI-8226 2.21 µM | M14 1.87 µM | PC-3 3.89 µM | EKVX 12.3 µM | K562 1.87 µM | HL-60 2.02 µM | TK-10 6.87 µM | NCI-H522 4.88 µM | MOLT-4 2.04 µM | SF-539 3.26 µM | CAKI-1 4.21 µM | BT-549 6.22 µM | SW-620 2.45 µM | SF-268 9.33 µM | SK-MEL-2 2.11 µM | COLO 205 1.48 µM | Malme-3M 1.99 µM | SNB-75 6.71 µM | A498 11.4 µM | A549 7 µM

O=C(Oc1cccc2cccnc12)c1cc2cc(CCl)ccc2oc1=O
inactive: RPMI-8226 4.94 µM | M14 5.64 µM | PC-3 12.7 µM | EKVX 2.4 µM | K562 3.1 µM | HL-60 3.22 µM | TK-10 25.5 µM | NCI-H522 2.18 µM | MOLT-4 2.8 µM | SF-539 18 µM | CAKI-1 29.9 µM | BT-549 31.5 µM | SW-620 4.56 µM | SF-268 18.5 µM | SK-MEL-2 17.6 µM | COLO 205 6.3 µM | Malme-3M 15.7 µM | SNB-75 56 µM | A498 48.8 µM | A549 27.7 µM
